{"source": "patent US7531320B2", "about": "“Modulation of β-catenin/TCF-activated transcription” (priority 2003, dated 2009)", "key": {"[1]": {"test_system": "SW480 cells", "assay": "Soft agar colony formation assay with SW480 cells", "type": "cell-based, human"}, "[2]": {"target": "T1, full-length mouse CBP (Mus musculus, UniProt P45481)", "T1 construct": "vectors expressing full-length Xenopus laevis β-catenin (2.2 μg) or full-length mouse CBP (1.1 μg); expressed in transfected cells; host or cells: SW480", "T1 sequence (P45481 whole entry)": "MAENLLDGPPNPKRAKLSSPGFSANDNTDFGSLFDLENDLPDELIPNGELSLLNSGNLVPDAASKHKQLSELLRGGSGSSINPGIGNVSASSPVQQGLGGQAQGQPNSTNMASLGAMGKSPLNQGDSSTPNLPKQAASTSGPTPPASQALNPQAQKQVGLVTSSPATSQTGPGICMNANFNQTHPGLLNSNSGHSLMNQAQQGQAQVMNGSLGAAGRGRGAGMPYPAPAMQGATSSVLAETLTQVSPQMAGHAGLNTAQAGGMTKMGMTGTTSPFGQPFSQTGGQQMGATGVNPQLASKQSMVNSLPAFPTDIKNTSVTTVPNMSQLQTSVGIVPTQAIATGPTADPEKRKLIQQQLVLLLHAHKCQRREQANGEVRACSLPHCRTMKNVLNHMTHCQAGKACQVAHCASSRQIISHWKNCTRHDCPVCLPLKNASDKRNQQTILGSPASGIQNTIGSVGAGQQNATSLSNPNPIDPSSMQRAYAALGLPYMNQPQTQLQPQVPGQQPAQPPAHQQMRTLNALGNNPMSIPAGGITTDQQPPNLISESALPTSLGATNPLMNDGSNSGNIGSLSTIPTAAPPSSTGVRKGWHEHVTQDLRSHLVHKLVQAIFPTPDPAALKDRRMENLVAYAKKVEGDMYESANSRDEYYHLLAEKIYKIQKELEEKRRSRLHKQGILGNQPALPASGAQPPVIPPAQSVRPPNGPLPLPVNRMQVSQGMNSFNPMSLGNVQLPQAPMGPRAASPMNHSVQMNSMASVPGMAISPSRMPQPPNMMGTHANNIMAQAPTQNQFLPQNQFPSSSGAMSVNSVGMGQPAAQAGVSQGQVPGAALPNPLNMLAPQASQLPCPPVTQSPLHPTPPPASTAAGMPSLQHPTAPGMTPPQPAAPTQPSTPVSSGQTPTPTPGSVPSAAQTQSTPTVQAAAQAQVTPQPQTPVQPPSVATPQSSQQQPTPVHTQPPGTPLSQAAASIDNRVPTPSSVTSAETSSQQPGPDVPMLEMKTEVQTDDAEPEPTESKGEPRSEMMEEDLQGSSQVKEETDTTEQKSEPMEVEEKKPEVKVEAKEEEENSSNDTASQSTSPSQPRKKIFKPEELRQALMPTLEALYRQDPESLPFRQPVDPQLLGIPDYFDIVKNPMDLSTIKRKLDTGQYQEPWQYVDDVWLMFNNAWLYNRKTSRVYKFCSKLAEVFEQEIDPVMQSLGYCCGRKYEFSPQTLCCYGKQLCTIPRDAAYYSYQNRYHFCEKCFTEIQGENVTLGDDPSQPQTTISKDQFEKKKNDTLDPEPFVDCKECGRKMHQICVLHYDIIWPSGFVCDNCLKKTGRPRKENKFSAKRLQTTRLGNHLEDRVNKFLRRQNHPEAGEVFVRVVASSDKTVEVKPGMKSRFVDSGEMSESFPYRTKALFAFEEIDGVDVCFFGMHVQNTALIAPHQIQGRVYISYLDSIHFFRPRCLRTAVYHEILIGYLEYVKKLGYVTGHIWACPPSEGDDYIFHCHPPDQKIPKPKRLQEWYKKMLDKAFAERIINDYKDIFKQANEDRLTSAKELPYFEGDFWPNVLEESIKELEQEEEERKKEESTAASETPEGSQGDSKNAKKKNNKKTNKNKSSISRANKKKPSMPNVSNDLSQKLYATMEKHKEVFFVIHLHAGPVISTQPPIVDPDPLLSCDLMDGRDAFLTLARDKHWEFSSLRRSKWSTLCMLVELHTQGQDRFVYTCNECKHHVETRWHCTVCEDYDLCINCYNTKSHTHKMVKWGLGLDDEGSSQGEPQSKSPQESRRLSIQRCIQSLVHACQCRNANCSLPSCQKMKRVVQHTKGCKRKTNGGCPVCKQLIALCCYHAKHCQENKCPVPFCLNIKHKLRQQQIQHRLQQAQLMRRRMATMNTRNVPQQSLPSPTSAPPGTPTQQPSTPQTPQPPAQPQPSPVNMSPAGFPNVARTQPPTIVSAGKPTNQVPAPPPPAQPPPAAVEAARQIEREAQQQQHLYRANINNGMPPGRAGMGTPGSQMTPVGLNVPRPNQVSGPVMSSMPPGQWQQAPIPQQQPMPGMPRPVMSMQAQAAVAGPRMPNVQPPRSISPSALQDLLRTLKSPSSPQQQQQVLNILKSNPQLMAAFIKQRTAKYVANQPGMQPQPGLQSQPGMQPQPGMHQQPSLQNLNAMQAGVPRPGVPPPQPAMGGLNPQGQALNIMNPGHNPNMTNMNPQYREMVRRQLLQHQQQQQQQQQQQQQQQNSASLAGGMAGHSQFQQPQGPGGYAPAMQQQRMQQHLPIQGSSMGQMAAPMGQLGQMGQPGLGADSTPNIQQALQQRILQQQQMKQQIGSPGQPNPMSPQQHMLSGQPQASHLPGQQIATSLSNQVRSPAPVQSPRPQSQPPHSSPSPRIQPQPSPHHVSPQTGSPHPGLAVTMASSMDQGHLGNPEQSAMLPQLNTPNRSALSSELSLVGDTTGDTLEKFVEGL", "assay": "14C-labeled COMPOUND 1 incorporation into SW480 nuclear lysates transfected with CBP", "type": "binding", "details": "100 μM and 200 μM cold COMPOUND 1, dose dependent", "experimental": "FIG. 1. COMPOUND 1 inhibits β-catenin/TCF transcription. • A(i) and A(ii). Structures of COMPOUND 1, COMPOUND 2, COMPOUND 3, COMPOUND 4, and COMPOUND 5. • B(i) and B(ii). […] SW480 cells (10^5), (FIG. 1B(i)), were transfected with β-catenin/TCF luciferase construct. Cells were treated with COMPOUND 1 (1-64 μM). 24 hours post treatment lysates were prepared and subjected to dual luciferase assay. The data is represented in different form in FIG. 1B(ii). • C. COMPOUND 1 has no effect on NFAT reporter construct. Stably transfected Jurkat cells, right panel, with an NFAT reporter construct, were stimulated with PMA (10 ng/ml)/lonomycin (1 μg/ml), and treated with COMPOUND 1 (0.781-50 μM). 24 hours post treatment lysates were prepared and subjected to dual luciferase assay. All experiments were performed in duplicate and the values plotted as means +/−standard deviation. • D. CBP is the molecular target of COMPOUND 1. […] The lysates were desalted using G-25 1 cc columns (Pharmacia) to remove the unbound ^14C-labeled-COMPOUND 1, and ^14C-labeled-COMPOUND 1 incorporation was measured.\nA series of further investigations were performed to further validate that COMPOUND 1 binds CBP. […] Cell lysates were then desalted using G-25 columns to remove the unbound ^14C-labeled COMPOUND 1 and the incorporation of radioactivity was measured."}, "[3]": {"test_system": "axin2", "assay": "Real Time RT-PCR in SW480 cells, axin2", "type": "cell-based, human", "details": "25 μM; for ΔCT axin2: relative to β-actin", "experimental": "The RNeasy Midi Kit (Qiagen) was used for RNA extraction and Real Time RT-PCR was performed according to the protocol provided with the SYBR Green PCR Master Mix Kit (Perkin Elmer Biosystems, Shelton, Conn.). The primers used for cyclin D1, axin2, hnkd, c-myc, c-jun, and fra-1 amplifications were: cyclin D1 forward primer:5′-[…]-CCTGCTG-3′ (SEQ ID NO: 32) reverse primer: 5′-[…]-3′ (SEQ ID NO: 33) leading to a product size of approximately 300 bp; axin2 forward primer: 5′-[…] GGAAA-CT-3′ (SEQ ID NO: 34) and reverse primer: 5′-[…]-GAGA-3′ (SEQ ID NO: 35); hnkd forward primer: 5′-[…] TTGCGT-3′ (SEQ ID NO: 36) and the reverse primer: 5′-[…] ACGT-3′ (SEQ ID NO: 37); c-myc forward primer: 5′-GAA-[…] CTGC-3′ (SEQ ID NO: 38) and reverse primer: 5′-[…]-G-3′ (SEQ ID NO: 39); c-jun forward primer: 5′-[…]-3′ (SEQ ID NO: 40) and reverse primer: 5′-[…]-3′ (SEQ ID NO: 41); fra-1 forward primer: 5′-ACC-[…]-[…]-3′ (SEQ ID NO: 42) and reverse primer: 5′-[…]-TT-3′ (SEQ ID NO: 43). β-actin was used for normalization. […]\n1 μg of mRNA, for each time point, was subjected to Real Time RT-PCR. Expression level of endogenous cyclin D1, c-myc, fibronectin, hnkd, axin2, c-jun, and BMP-4 were measured relative to β-actin. Quantitation of The ΔCycle of Threshold (CT) values was determined by subtracting the average values of each set by the corresponding average values obtained for β-actin. […]\nThe cyclin D1 gene is inappropriately expressed in many different tumor types, and is known to be a direct target of the Wnt/β-catenin pathway (Shtutman et al., “The cyclin D1 gene is a target of the beta-catenin/LEF-1 pathway,” Proc. Natl. Acad. Sci. USA 96:5522-27 (1999); Tetsu et al., “Beta-catenin regulates expression of cyclin D1 in colon carcinoma cells,” Nature 398:422-26 (1999)). […] Expression level of endogenous cyclin D1, c-myc, fibronectin, hnkd, axin2, c-jun, and BMP-4 were measured relative to β-actin. Quantitation of The ΔCycle of Threshold (CT) values was determined by subtracting the average values of each set by the corresponding average values obtained for β-actin. […]"}}, "data": [{"smiles": "O=C1C(Cc2ccc(O)cc2)N2C(=O)CCN(C(=O)NCc3ccccc3)C2CN1Cc1cccc2ccccc12", "note": "(stereo not drawn) [COMPOUND 1]", "values": [{"measurement": "Number of colonies formed in soft agar", "setting": "[1]; 0.25-5 μM", "value": "dose dependent decrease"}, {"measurement": "IC50", "setting": "[1]; 5000 cells/well, colonies counted after 8 days", "value": "870 ± 110", "unit": "nM"}, {"measurement": "Competition of 14C-labeled COMPOUND 1 incorporation by cold COMPOUND 1", "setting": "[2]", "value": "competed away"}, {"measurement": "mRNA axin2 (direction)", "setting": "[3]", "value": "↓"}, {"measurement": "ΔCT axin2", "setting": "[3]; 4 hours", "value": 0.3}, {"measurement": "ΔCT axin2", "setting": "[3]; 8 hours", "value": 0.8}]}]}
